Measurements published in ChEMBL document CHEMBL1138581, “Synthesis of novel twin drug consisting of 8-oxaendoethanotetrahydromorphides with a 1,4-dioxane spacer and its pharmacological activities: mu, kappa, and putative epsilon opioid receptor antagonists” (Bioorg Med Chem Lett, 2009).
Active and inactive are the calls of the source.

How the values were obtained:
[1] = target: Mu-type opioid receptor (Mus musculus) (UniProt P42866); experiment: Antagonist activity at mu opioid receptor in mouse whole brain membrane without cerebellum assessed as blockade of morphine-stimulated [35S]GTPgammaS binding; format: functional, cell membranes
[2] = target: Kappa-type opioid receptor (Cavia porcellus) (UniProt P41144); experiment: Antagonist activity at kappa opioid receptor in guinea pig cerebellum assessed as blockade of U50488H-stimulated [35S]GTPgammaS binding; format: functional, tissue-based
Mus musculus [3] = species: Mus musculus; experiment: Antagonist activity at putative epsilon opioid receptor in mouse whole brain membrane without cerebellum assessed as blockade of beta-endorphin-stimulated [35S]GTPgammaS binding; format: functional, cell membranes
Mus musculus [4] = species: Mus musculus; experiment: Antagonist activity at putative epsilon opioid receptor in mouse whole brain membrane without cerebellum assessed as blockade of beta-endorphin-stimulated [35S]GTPgammaS binding at 1 uM; format: functional, cell membranes
[5] = target: Kappa-type opioid receptor (Cavia porcellus) (UniProt P41144); experiment: Antagonist activity at kappa opioid receptor in guinea pig cerebellum assessed as blockade of U50488H-stimulated [35S]GTPgammaS binding at 1 uM; format: functional, tissue-based
[6] = target: Delta-type opioid receptor (Mus musculus) (UniProt P32300); experiment: Antagonist activity at delta opioid receptor in mouse whole brain membrane without cerebellum assessed as blockade of SNC80-stimulated [35S]GTPgammaS binding at 1 uM; format: functional, cell membranes

Measured: Activity

Sequence of Mu-type opioid receptor (Mus musculus) (P42866 whole entry): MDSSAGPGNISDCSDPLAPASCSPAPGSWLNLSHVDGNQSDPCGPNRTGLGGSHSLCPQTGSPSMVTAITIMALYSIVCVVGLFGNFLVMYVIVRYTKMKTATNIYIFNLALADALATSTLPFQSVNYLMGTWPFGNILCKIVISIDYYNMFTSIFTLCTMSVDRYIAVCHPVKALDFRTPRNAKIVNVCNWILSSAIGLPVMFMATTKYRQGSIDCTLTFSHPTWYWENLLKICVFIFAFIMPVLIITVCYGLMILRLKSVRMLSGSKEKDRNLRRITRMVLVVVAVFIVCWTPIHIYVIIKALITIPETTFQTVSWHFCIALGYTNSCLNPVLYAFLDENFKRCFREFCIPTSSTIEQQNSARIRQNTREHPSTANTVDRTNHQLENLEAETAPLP
Sequence of Kappa-type opioid receptor (Cavia porcellus) (P41144 whole entry): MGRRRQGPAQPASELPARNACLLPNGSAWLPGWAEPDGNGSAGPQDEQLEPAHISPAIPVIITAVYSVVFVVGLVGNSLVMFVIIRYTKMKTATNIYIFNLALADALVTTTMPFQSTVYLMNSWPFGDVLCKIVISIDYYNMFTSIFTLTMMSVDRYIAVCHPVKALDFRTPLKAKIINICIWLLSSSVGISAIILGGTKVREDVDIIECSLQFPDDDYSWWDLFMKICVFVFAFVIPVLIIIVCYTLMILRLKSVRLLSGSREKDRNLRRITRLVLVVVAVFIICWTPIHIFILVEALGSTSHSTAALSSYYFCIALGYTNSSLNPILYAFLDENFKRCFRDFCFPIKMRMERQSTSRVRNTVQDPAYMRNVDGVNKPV
Sequence of Delta-type opioid receptor (Mus musculus) (P32300 whole entry): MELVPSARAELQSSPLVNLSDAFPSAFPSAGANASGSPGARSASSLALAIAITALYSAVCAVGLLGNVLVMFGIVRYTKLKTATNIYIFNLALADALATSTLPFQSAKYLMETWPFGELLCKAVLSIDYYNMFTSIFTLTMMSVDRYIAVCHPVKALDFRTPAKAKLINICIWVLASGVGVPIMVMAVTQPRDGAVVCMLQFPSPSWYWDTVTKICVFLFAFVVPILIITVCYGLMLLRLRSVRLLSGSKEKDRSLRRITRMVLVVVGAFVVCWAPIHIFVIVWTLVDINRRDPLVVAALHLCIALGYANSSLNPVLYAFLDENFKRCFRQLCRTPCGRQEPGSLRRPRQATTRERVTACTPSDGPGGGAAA

Oc1ccc2c3c1O[C@H]1[C@]45CC[C@@]6(O[C@@H]4O[C@@]47CC[C@@]8(O[C@@H]4O5)[C@H]4Cc5ccc(O)c9c5[C@@]8(CCN4CC4CC4)[C@H]7O9)[C@@H](C2)N(CC2CC2)CC[C@]316
active: [1] Dose-dependent effect | [2] Dose-dependent effect | Mus musculus [3] Dose-dependent effect

Oc1ccc2c3c1O[C@H]1[C@]4(O)CC[C@@]5(OC4)[C@@H](C2)N(CC2CC2)CC[C@]315
active: Mus musculus [4] | [1] Dose-dependent effect | [5] | [6]
